# Measured values taken from US20230310441A1, “TREATMENT FOR SCHIZOPHRENIA” (TAKEDA PHARMACEUTICAL COMPANY, priority 2020, published 2023).
# Marks after values point to notes of the source that are not given here.
# Tests used:
# [1] = Phase 1 FIH study Part 4: safety and tolerability (TEAEs) in patients with stable schizophrenia; assay type: in vivo, human
# Excerpt: Part 4 was a double-blind, weekly single dosing, parallel group design in patients with stable schizophrenia.
# Participants in the placebo group received placebo on all study dosing days.
# In Part 4, participants met schizophrenia criteria as defined by the Diagnostic and Statistical Manual of Mental Disorders, 5th Edition (DSM-5) by the Mini International Neuropsychiatric Interview (MINI), a Positive and Negative Syndrome Scale (PANSS) total score ≤90 and a sum of PANSS N1, N2, N3, N4, N6, G7 and G16≥15 at screening and baseline. In addition, participants had to be on a stable dose of antipsychotic medication for at least two months.
# Safety measurements used in the phase 1 study included treatment-emergent adverse events (TEAEs), physical examinations, weight, height, BMI, vital signs, clinical laboratory evaluations, pregnancy monitoring, and ECG procedures.
# Participants experiencing two or more different TEAEs were counted only once. Frequent TEAEs were defined as adverse events that occurred in at least two participants in any treatment. Participants were evaluated with respect to mood and alertness (BL-VAS) and suicidality (C-SSRS).
# [2] = test system: endogenous dopamine release in the human brain; assay: [^11C]PHNO PET of endogenous dopamine release after d-AMPH challenge; assay type: in vivo; details: for ΔΔBPND Mean (SD), Ca / ΔΔBPND Mean (SD), GP / ΔΔBPND Mean (SD), Pu / ΔΔBPND Mean (SD), SN / ΔΔBPND Mean (SD), VSt: attenuation of d-AMPH effect
# Experimental: A T1-weighted magnetic resonance imaging (MRI) scan of the brain, performed at screening, was used to obtain anatomical information required for PET data analysis. Each subject underwent three [^11C]PHNO PET scans, one at baseline, the second approximately 3 h after a single oral dose of dex-amphetamine (d-AMPH, 0.5 mg/kg), and the third approximately 5 h after a single oral dose of Compound (I) (20 or 40 mg) and 3 h after an oral dose of dex-amphetamine (d-APMH) (0.5 mg/kg) (FIG. 2).
# Subjects were positioned in the PET scanner, after the insertion of a venous cannula in an antecubital or forearm vein. Soft padding and head restraints were used to minimize head movement during data acquisition. All dynamic [^11C]PHNO PET scans were acquired on Siemens Biograph 6 PET/CT scanners (Hi-Rez (PET/CT1) or a TruePoint with TrueV, Siemens Healthcare, Erlangen, Germany). All scans for a particular subject were acquired on the same scanner. A low-dose computed tomography (CT) scan was performed immediately before each PET study to estimate signal attenuation. Following an intravenous bolus injection of [^11C]PHNO, dynamic emission data were acquired for 90 min in 26 frames of increasing duration. The dynamic images were reconstructed using Fourier rebinning and a 2D filtered discrete inverse Fourier transform algorithm with 5 mm isotropic Gaussian filter on a 128×128 matrix with 2.6 zoom giving 2 mm isotropic voxels. Appropriate corrections were applied for attenuation, randoms, and scatter.
# The primary set of ROIs defined were the ventral striatum (VSt), putamen (Pu) and cerebellum. […] The cerebellum was used as a reference region. An additional set of ROIs including the caudate nucleus (Ca), globus pallidus (GP) and substantia nigra (SN) was also evaluated.
# Regional TAC data extracted from the PET images were fitted using a basis function implementation of the SRTM (Gunn et al., 1997) to estimate the binding potential relative to the non-displaceable component (BPND) for each PET scan, as a measure of specific binding (Innis et al., 2007).
# Reduction in [^11C]-PHNO specific binding following a d-AMPH challenge (ΔBPND^APMH) was quantified as percent change in postdose BPND (BPND^AMPH) from baseline BPND (BPND^BL):
# Reduction in [^11C]-PHNO specific binding following a combination of Compound (I) and d-AMPH (ΔBPND^APMH+C1) was quantified as percent change in postdose BPND (BPND^AMPH+C1) from baseline BPND (BPND^BL):
# The effect of Compound (I) (ΔΔBPND) was quantified as the percent change BPND in ΔBPND^APMH+C1 compared to ΔBPND^APMH:
# All statistical comparisons were conducted using Student's t-tests for each ROI, using paired tests for within subject comparisons, and unpaired tests for between group comparisons.
# [3] = Part 4 MRD, 160/80 mg, N = 16, participants (percent)
compound,measurement,setting,value
"C[C@H](NC(=O)Cn1nnc2ccccc2c1=O)c1ccc(OC(F)(F)F)cc1 [Compound (I), (S)-2-(4-oxobenzo[d][1,2,3]triazin-3(4H)-yl)-N-(1-(4-(trifluoromethoxy)phenyl)ethyl)acetamide]",TEAE intensity,[1]; Part 4 (MRD),All TEAEs were mild
same,frequency of TEAEs related to the study drug,"[1]; Part 4 (MRD), patients with schizophrenia who received Compound (I)",56.3%
same,Any TEAE,[1]; [3],9 (56.3)
same,TEAE Mild,[1]; [3],9 (56.3)
same,TEAE Related,[1]; [3],9 (56.3)
same,"dose effect on ΔΔBPND, 40 mg group vs 20 mg group","[2]; Pu and GP, one-tailed t-tests, p<0.01",significantly greater than that in the 20 mg group
same,effect of pre-treatment on the d-AMPH challenge,"[2]; all ROI, significant in Pu, VSt and SN",attenuated the effect of the d-AMPH challenge in all ROI examined
same,"ΔΔBPND Mean (SD), Ca",[2]; 20 mg single oral dose,−4.2 (59.2) %
same,"ΔΔBPND Mean (SD), GP",[2]; 20 mg single oral dose,−3.2 (19.7) %
same,"ΔΔBPND Mean (SD), Pu",[2]; 20 mg single oral dose,16.4 (11.3)* %
same,"ΔΔBPND Mean (SD), SN",[2]; 20 mg single oral dose,25.6 (49.7) %
same,"ΔΔBPND Mean (SD), VSt",[2]; 20 mg single oral dose,13.8 (14.1)* %
same,"ΔΔBPND Mean (SD), Ca",[2]; 40 mg single oral dose,24.8 (26.7) %
same,"ΔΔBPND Mean (SD), GP",[2]; 40 mg single oral dose,66.6 (32.4) %
same,"ΔΔBPND Mean (SD), Pu",[2]; 40 mg single oral dose,36.4 (7.7) * %
same,"ΔΔBPND Mean (SD), SN",[2]; 40 mg single oral dose,40.8 (58.6) %
same,"ΔΔBPND Mean (SD), VSt",[2]; 40 mg single oral dose,22.6 (20.3) %
same,"ΔΔBPND Mean (SD), Ca",[2]; all subjects (20 or 40 mg),10.3 (45.9) %
same,"ΔΔBPND Mean (SD), GP",[2]; all subjects (20 or 40 mg),31.7 (44.6) %
same,"ΔΔBPND Mean (SD), Pu",[2]; all subjects (20 or 40 mg),26.4 (13.9)* %
same,"ΔΔBPND Mean (SD), SN",[2]; all subjects (20 or 40 mg),33.2 (51.8)* %
same,"ΔΔBPND Mean (SD), VSt",[2]; all subjects (20 or 40 mg),18.2 (17.1)* %
same,blood-brain barrier crossing,[2]; healthy human volunteers,readily crossed the blood-brain barrier
same,modulation of dopamine release,"[2]; healthy human volunteers, 20 or 40 mg single oral dose",dose-dependent modulation of dopamine release
